EC50 and Emax data for 15 compounds are collected here from patent US20240368150A1 (Hoffmann-La Roche Inc., priority 2021, published 2024).

Experiment [1] concerns primary human T-cells.
Experiment [2] concerns primary human T-cells. Kind of experiment: Proliferation assay after 5 days (CellTiter-Glo, CD3 stimulation; PBS counter screen). Format: cell-based. Particulars: T-cell, 120 h, CD3 stimulation; for Emax: 5 days, normalized to reference compound A1 as stimulator control = 100%, DMSO neutral control, read-out: Emax proliferation (% activation); for EC50: primary human T-cells, CellTiter-Glo after 5 days, EC50 of fitted sigmoidal curve, read-out: Tcell Proliferation CD3 EC50. Summed up:
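Primary human T-cells, with or without CD3 stimulation, exposed to compounds for 5 days; cell number read as ATP by CellTiter-Glo 2.0 luminescence after 45 min equilibration and 15 min reagent incubation at room temperature. Compounds activating unstimulated cells or reducing viability were flagged.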

Like-named read-outs stand apart in the source and are kept apart here. Bounds are passed on as bounds.

For the compound `CC(Nc1nnc(-c2cc3c(cc2F)S(=O)(=O)C[C@H](N)C(=O)N3Cc2ccc(Cl)cc2)o1)C(F)(F)F` (stereo partly drawn) [Example 498, (3R)-3-amino-5-[(4-chlorophenyl)methyl]-8-fluoro-1,1-dioxo-7-[5-[(2,2,2-trifluoro-1-methyl-ethyl)amino]-1,3,4-oxadiazol-2-yl]-2,3-dihydro-1λ^6,5-benzothiazepin-4-one], the EC50 in experiment [1] was found to be 724 nM; in experiment [2], 1080 nM. In experiment [2] (Homo sapiens), the Emax came out at 103%.
For `N[C@H]1CS(=O)(=O)c2cc(F)c(-c3nnc(NC45CC(F)(C4)C5)o3)cc2N(Cc2ccc(Cl)cc2)C1=O` [Example 499, (3R)-3-amino-5-[(4-chlorophenyl)methyl]-8-fluoro-7-[5-[(3-fluoro-1-bicyclo[1.1.1]pentanyl)amino]-1,3,4-oxadiazol-2-yl]-1,1-dioxo-2,3-dihydro-1λ^6,5-benzothiazepin-4-one], the EC50 in experiment [1] was determined as 2230 nM. In experiment [2] (Homo sapiens), the Emax was 68% and the EC50 is 768 nM.
Regarding `N[C@H]1CS(=O)(=O)c2cc(F)c(-c3nnc(NC45CC(Cl)(C4)C5)o3)cc2N(Cc2ccc(Cl)cc2)C1=O` [Example 500, (3R)-3-amino-7-[5-[(3-chloro-1-bicyclo[1.1.1]pentanyl)amino]-1,3,4-oxadiazol-2-yl]-5-[(4-chlorophenyl)methyl]-8-fluoro-1,1-dioxo-2,3-dihydro-1λ^6.5-benzothiazepin-4-one], the results for the EC50 in experiment [1] and in experiment [2] (Homo sapiens) were 911 nM and 1230 nM, respectively. The Emax in experiment [2] (Homo sapiens) is 97%.
With `N[C@H]1CS(=O)(=O)c2cc(F)c(-c3nnc(NC45CC(C4)C5)o3)cc2N(Cc2ccc(Cl)cc2)C1=O` [Example 501, (3R)-3-amino-7-[5-(1-bicyclo[1.1.1]pentanylamino)-1,3,4-oxadiazol-2-yl]-5-[(4-chlorophenyl)methyl]-8-fluoro-1,1-dioxo-2,3-dihydro-1λ^6.5-benzothiazepin-4-one], in experiment [1], the EC50 turned out to be 3120 nM. Moreover, in experiment [2] (Homo sapiens), the Emax was determined as 92% and the EC50 was determined as 473 nM.
For `CC(F)(F)CNc1nnc(-c2cc3c(cc2F)S(=O)(=O)C[C@H](N)C(=O)N3Cc2ccc(Cl)cc2)o1` [Example 502, (3R)-3-amino-5-[(4-chlorophenyl)methyl]-7-[5-(2,2-difluoropropylamino)-1,3,4-oxadiazol-2-yl]-8-fluoro-1,1-dioxo-2,3-dihydro-1λ^6,5-benzothiazepin-4-one] the same measures were above 10000 nM, 72% and 4460 nM.
Consider `C[C@@H](COC(F)(F)F)Nc1nnc(-c2cc3c(cc2F)S(=O)(=O)C[C@H](N)C(=O)N3Cc2ccc(Cl)cc2)o1` [Example 503, (3R)-3-amino-5-[(4-chlorophenyl)methyl]-8-fluoro-1,1-dioxo-7-[5-[[(1S)-1-methyl-2-(trifluoromethoxy)ethyl]amino]-1,3,4-oxadiazol-2-yl]-2,3-dihydro-1λ^6,5-benzothiazepin-4-one], for which, in experiment [1], the EC50 is 3090 nM. Also, in experiment [2] (Homo sapiens), the Emax was determined as 135% and the EC50 stood at 371 nM.
The compound `N[C@H]1CS(=O)(=O)c2cc(F)c(-c3nnc(NC4CC(C(F)(F)F)C4)o3)cc2N(Cc2ccc(Cl)cc2)C1=O` (stereo partly drawn) [Example 504, (3R)-3-amino-5-[(4-chlorophenyl)methyl]-8-fluoro-1,1-dioxo-7-[5-[[3-(trifluoromethyl)cyclobutyl]amino]-1,3,4-oxadiazol-2-yl]-2,3-dihydro-1λ^6,5-benzothiazepin-4-one] yielded an EC50 in experiment [1] of 1230 nM. Besides, in experiment [2] (Homo sapiens), the Emax was 103% and the EC50 amounted to 1110 nM.
For `N[C@H]1CS(=O)(=O)c2cc(F)c(-c3nnc(N4CC5(CCCO5)C4)o3)cc2N(Cc2ccc(Cl)cc2)C1=O` [Example 505, (3R)-3-amino-5-[(4-chlorophenyl)methyl]-8-fluoro-7-[5-(5-oxa-2-azaspiro[3.4]octan-2-yl)-1,3,4-oxadiazol-2-yl]-1,1-dioxo-2,3-dihydro-1λ^6,5-benzothiazepin-4-one] the same measures were 191 nM, 94% and 182 nM.
In experiment [1], `CC(CC(F)(F)F)Nc1nnc(-c2cc3c(cc2F)S(=O)(=O)C[C@H](N)C(=O)N3Cc2ccc(Cl)cc2)o1` (stereo partly drawn) [Example 506, (3R)-3-amino-5-[(4-chlorophenyl)methyl]-8-fluoro-1,1-dioxo-7-[5-[(3,3,3-trifluoro-1-methyl-propyl)amino]-1,3,4-oxadiazol-2-yl]-2,3-dihydro-1λ^6.5-benzothiazepin-4-one] returned an EC50 of 1320 nM. In experiment [2] (Homo sapiens), the Emax turned out to be 88% and the EC50 worked out at 243 nM.
For `CC1CN(Cc2nnc(-c3cc4c(cc3F)SC[C@H](N)C(=O)N4Cc3ccc(Cl)cc3)o2)C1` [Example 507, (3R)-3-amino-5-[(4-chlorophenyl)methyl]-8-fluoro-7-[5-[(3-methylazetidin-1-yl)methyl]-1,3,4-oxadiazol-2-yl]-2,3-dihydro-1,5-benzothiazepin-4-one], the EC50 in experiment [1] is 8040 nM. Also, in experiment [2] (Homo sapiens), the Emax was 74% and the EC50 turned out to be 2230 nM.
Compound `CC(C)(C)c1nnc(-c2cc3c(cc2F)S(=O)(=O)C[C@H](N)C(=O)N3Cc2ccc(Cl)cc2)s1` [Example 508, (3R)-3-amino-7-(5-tert-butyl-1,3,4-thiadiazol-2-yl)-5-[(4-chlorophenyl)methyl]-8-fluoro-1,1-dioxo-2,3-dihydro-1λ^6,5-benzothiazepin-4-one] displayed an EC50 in experiment [1] of 459 nM. Besides, in experiment [2] (Homo sapiens), the Emax is 110% and the EC50 came out at 396 nM.
`CC(C)(C)n1nc(-c2cc3c(cc2F)S(=O)(=O)C[C@H](N)C(=O)N3Cc2ccc(Cl)cc2)oc1=O` [Example 510, 3-tert-butyl-5-[(3R)-3-amino-5-[(4-chlorophenyl)methyl]-8-fluoro-1,1,4-trioxo-2,3-dihydro-1λ^6,5-benzothiazepin-7-yl]-1,3,4-oxadiazol-2-one] gave an EC50 in experiment [1] of 91.7 nM. Further, in experiment [2] (Homo sapiens), the Emax was found to be 129% and the EC50 amounted to 403 nM.
As to `COC(=O)N1CC2CC(c3nc(-c4cc5c(cc4F)[S+]([O-])C[C@H](N)C(=O)N5Cc4ccc(OC(F)(F)C(F)F)cc4)no3)(C2)C1` (stereo partly drawn) [Example 511, methyl 1-[3-[(3R)-3-amino-8-fluoro-1,4-dioxo-5-[[4-(1,1,2,2-tetrafluoroethoxy)phenyl]methyl]-2,3-dihydro-1λ^4,5-benzothiazepin-7-yl]-1,2,4-oxadiazol-5-yl]-3-azabicyclo[3.1.1]heptane-3-carboxylate], the EC50 in experiment [1] was 7820 nM. In experiment [2] (Homo sapiens), the Emax came out at 104% and the EC50 turned out to be 6620 nM.
As for `COC(=O)N1CC2CC(c3nc(-c4cc5c(cc4F)S(=O)(=O)C[C@H](N)C(=O)N5Cc4ccc(OC(F)(F)C(F)F)cc4)no3)(C2)C1` [Example 512, methyl 1-[3-[(3R)-3-amino-8-fluoro-1,1,4-trioxo-5-[[4-(1,1,2,2-tetrafluoroethoxy)phenyl]methyl]-2,3-dihydro-1λ^6,5-benzothiazepin-7-yl]-1,2,4-oxadiazol-5-yl]-3-azabicyclo[3.1.1]heptane-3-carboxylate], the EC50 in experiment [1] is 993 nM. Further, in experiment [2] (Homo sapiens), the Emax is 162%.
`COC(F)(c1nc(-c2cc3c(cc2F)S(=O)(=O)C[C@H](N)C(=O)N3Cc2ccc(F)cc2)no1)C(F)(F)F` (stereo partly drawn) [Example 513, (3R)-3-amino-8-fluoro-5-[(4-fluorophenyl)methyl]-1,1-dioxo-7-[5-(1,2,2,2-tetrafluoro-1-methoxy-ethyl)-1,2,4-oxadiazol-3-yl]-2,3-dihydro-1λ^6,5-benzothiazepin-4-one] had an EC50 in experiment [1] of 307 nM. Further, in experiment [2] (Homo sapiens), the Emax was determined as 157% and the EC50 turned out to be 285 nM.
